From US12077503B2, “Substituted cyclic amides and their use as herbicides” (FMC CORPORATION, priority 2015, dated 2024)
Where two headings read alike, the source gives them in different places.

Experiments:
Assay in all cases: Test A postemergence
Format in all cases: in vivo
[1] = system: barnyardgrass (Echinochloa crus-galli); details: Echinochloa crus-galli, post-emergence, 240 h, postemergence; for pest or weed control at 125 g/ha: 125 g ai/ha; for pest or weed control at 500 g/ha: 500 g ai/ha, 0 to 100 scale, 0 is no effect, 100 is complete control
Method in brief: (§1)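 Greenhouse, ~10 d after spray; visual injury vs untreated controls, 0 = no effect, 100 = complete control. Preemergence: directed soil spray over planted seeds. Postemergence: plants 2–10 cm, 1–2 leaf stage. Loam/sand blend. Compound in non-phytotoxic solvent with surfactant.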

[2] = system: blackgrass (Alopecurus myosuroides); details: Alopecurus myosuroides, post-emergence, 240 h, postemergence; for pest or weed control at 125 g/ha: 125 g ai/ha; for pest or weed control at 500 g/ha: 500 g ai/ha, 0 to 100 scale, 0 is no effect, 100 is complete control
Method in brief: as §1

corn (Zea mays) = details: Zea mays, post-emergence, 240 h, postemergence; for plant injury at 125 g/ha: 125 g ai/ha; for plant injury at 500 g/ha: 500 g ai/ha, 0 to 100 scale, 0 is no effect, 100 is complete control
Method in brief: as §1

[3] = system: giant foxtail (Setaria faberii); details: Setaria faberi, post-emergence, 240 h, postemergence; for pest or weed control at 125 g/ha: 125 g ai/ha; for pest or weed control at 500 g/ha: 500 g ai/ha, 0 to 100 scale, 0 is no effect, 100 is complete control
Method in brief: as §1

[4] = system: pigweed (Amaranthus retroflexus); details: Amaranthus retroflexus, post-emergence, 240 h, postemergence; for pest or weed control at 125 g/ha: 125 g ai/ha; for pest or weed control at 500 g/ha: 500 g ai/ha, 0 to 100 scale, 0 is no effect, 100 is complete control
Method in brief: as §1

[5] = visual injury on 0 to 100 scale (0 no effect, 100 complete control), approx. 10 d, read-out: Barnyardgrass plant response rating
[6] = read-out: Barnyardgrass plant response rating
[7] = visual injury on 0 to 100 scale (0 no effect, 100 complete control), approx. 10 d, read-out: Blackgrass plant response rating
[8] = read-out: Blackgrass plant response rating
[9] = visual injury on 0 to 100 scale (0 no effect, 100 complete control), approx. 10 d, read-out: Corn plant response rating
[10] = read-out: Corn plant response rating
[11] = visual injury on 0 to 100 scale (0 no effect, 100 complete control), approx. 10 d, read-out: Foxtail, Giant plant response rating
[12] = read-out: Foxtail, Giant plant response rating
[13] = visual injury on 0 to 100 scale (0 no effect, 100 complete control), approx. 10 d, read-out: Pigweed plant response rating
[14] = read-out: Pigweed plant response rating

## CN1C[C@H](c2csc3ccccc23)[C@@H](C(=O)Nc2cccc(F)c2F)C1=O [Compound 1115]
[1]; [5]
  pest or weed control at 125 g/ha: 80%
[1]; [6]
  pest or weed control at 500 g/ha: 90%
[2]; [7]
  pest or weed control at 125 g/ha: 30%
[2]; [8]
  pest or weed control at 500 g/ha: 40%
Corn (Zea mays); [9]
  plant injury at 125 g/ha: 40%
Corn (Zea mays); [10]
  plant injury at 500 g/ha: 50%
[3]; [11]
  pest or weed control at 125 g/ha: 70%
[3]; [12]
  pest or weed control at 500 g/ha: 90%
[4]; [13]
  pest or weed control at 125 g/ha: 20%
[4]; [14]
  pest or weed control at 500 g/ha: 20%

## O=C1NC[C@H](c2csc(C(F)F)c2)[C@H]1C(=O)Nc1ccccc1F [Compound 1118]
[1]; [5]
  pest or weed control at 125 g/ha: 80%
[1]; [6]
  pest or weed control at 500 g/ha: 90%
[2]; [7]
  pest or weed control at 125 g/ha: 20%
[2]; [8]
  pest or weed control at 500 g/ha: 60%
Corn (Zea mays); [9]
  plant injury at 125 g/ha: 0%
Corn (Zea mays); [10]
  plant injury at 500 g/ha: 20%
[3]; [11]
  pest or weed control at 125 g/ha: 0%
[3]; [12]
  pest or weed control at 500 g/ha: 50%
[4]; [13]
  pest or weed control at 125 g/ha: 0%
[4]; [14]
  pest or weed control at 500 g/ha: 20%

## O=C1NC[C@H](c2csc(C(F)F)c2)[C@H]1C(=O)Nc1cccc(F)c1F [Compound 1119]
[1]; [5]
  pest or weed control at 125 g/ha: 80%
[1]; [6]
  pest or weed control at 500 g/ha: 90%
[2]; [7]
  pest or weed control at 125 g/ha: 50%
[2]; [8]
  pest or weed control at 500 g/ha: 70%
Corn (Zea mays); [9]
  plant injury at 125 g/ha: 20%
Corn (Zea mays); [10]
  plant injury at 500 g/ha: 30%
[3]; [11]
  pest or weed control at 125 g/ha: 30%
[3]; [12]
  pest or weed control at 500 g/ha: 70%
[4]; [13]
  pest or weed control at 125 g/ha: 0%
[4]; [14]
  pest or weed control at 500 g/ha: 20%

## CN1C[C@H](c2cc(C(F)F)cs2)[C@@H](C(=O)Nc2cccc(F)c2F)C1=O [Compound 1121]
[1]; [5]
  pest or weed control at 125 g/ha: 90%
[1]; [6]
  pest or weed control at 500 g/ha: 90%
[2]; [7]
  pest or weed control at 125 g/ha: 40%
[2]; [8]
  pest or weed control at 500 g/ha: 60%
Corn (Zea mays); [9]
  plant injury at 125 g/ha: 50%
Corn (Zea mays); [10]
  plant injury at 500 g/ha: 90%
[3]; [11]
  pest or weed control at 125 g/ha: 90%
[3]; [12]
  pest or weed control at 500 g/ha: 90%
[4]; [13]
  pest or weed control at 125 g/ha: 20%
[4]; [14]
  pest or weed control at 500 g/ha: 40%

## CCc1cc(CC)cc([C@H]2CNC(=O)[C@@H]2C(=O)Nc2cccc(F)c2F)c1 [Compound 1139]
[1]; [5]
  pest or weed control at 125 g/ha: 60%
[1]; [6]
  pest or weed control at 500 g/ha: 90%
[2]; [7]
  pest or weed control at 125 g/ha: 40%
[2]; [8]
  pest or weed control at 500 g/ha: 60%
Corn (Zea mays); [9]
  plant injury at 125 g/ha: 60%
Corn (Zea mays); [10]
  plant injury at 500 g/ha: 80%
[3]; [11]
  pest or weed control at 125 g/ha: 40%
[3]; [12]
  pest or weed control at 500 g/ha: 70%
[4]; [13]
  pest or weed control at 125 g/ha: 0%
[4]; [14]
  pest or weed control at 500 g/ha: 0%

## Cc1c(F)cccc1NC(=O)[C@H]1C(=O)N(C)C[C@@H]1c1cc(F)cc(F)c1 [Compound 1140]
[1]; [5]
  pest or weed control at 125 g/ha: 90%
[1]; [6]
  pest or weed control at 500 g/ha: 90%
[2]; [7]
  pest or weed control at 125 g/ha: 30%
[2]; [8]
  pest or weed control at 500 g/ha: 70%
Corn (Zea mays); [9]
  plant injury at 125 g/ha: 60%
Corn (Zea mays); [10]
  plant injury at 500 g/ha: 70%
[3]; [11]
  pest or weed control at 125 g/ha: 90%
[3]; [12]
  pest or weed control at 500 g/ha: 90%
[4]; [13]
  pest or weed control at 125 g/ha: 0%
[4]; [14]
  pest or weed control at 500 g/ha: 0%

## CCc1cc([C@H]2CNC(=O)[C@@H]2C(=O)Nc2cccc(F)c2F)cs1 [Compound 1155]
[1]; visual injury vs untreated controls after approx. 10 d, 0 = no effect, 100 = complete control, read-out: Barnyardgrass plant response rating (0 to 100 scale)
  pest or weed control at 125 g/ha: 80%
[1]; [6]
  pest or weed control at 500 g/ha: 90%
[2]; visual injury vs untreated controls after approx. 10 d, 0 = no effect, 100 = complete control, read-out: Blackgrass plant response rating (0 to 100 scale)
  pest or weed control at 125 g/ha: 0%
[2]; [8]
  pest or weed control at 500 g/ha: 0%
Corn (Zea mays); visual injury vs untreated controls after approx. 10 d, 0 = no effect, 100 = complete control, read-out: Corn plant response rating (0 to 100 scale)
  plant injury at 125 g/ha: 20%
Corn (Zea mays); [10]
  plant injury at 500 g/ha: 30%
[3]; visual injury vs untreated controls after approx. 10 d, 0 = no effect, 100 = complete control, read-out: Foxtail, Giant plant response rating (0 to 100 scale)
  pest or weed control at 125 g/ha: 30%
[3]; [12]
  pest or weed control at 500 g/ha: 70%
[4]; visual injury vs untreated controls after approx. 10 d, 0 = no effect, 100 = complete control, read-out: Pigweed plant response rating (0 to 100 scale)
  pest or weed control at 125 g/ha: 0%
[4]; [14]
  pest or weed control at 500 g/ha: 0%
